The text below walks through data of patent US4006204A, “Phosphoric acid diesters” (priority 1975, dated 1977).

In one assay the test system is prostaglandin receptor. The assay is described as follows: Blocking of prostaglandin receptor activity, guinea pig ileum vs Prostaglandin E2. The class given is biochemical. To be noted: for prostaglandin receptor blocking activity (conclusion in words): summary of Table 1. As for the experimental part:
The following compounds were tested for their biological activity in blocking prostaglandin receptor activity. This test is useful in that many kinds of inflammation are at least partially prostaglandin mediated. Table 1 below tabulates the results.
^1 PGE2 : Guinea pig ileum IC50 vs Prostaglandin E2

In assay [1] the test system is croton oil-induced rat ear edema. In words: Tonelli anti-inflammatory animal test, croton oil-induced rat ear edema. The class given is in vivo. Particulars: for % protection at 0.3% / % protection at 1.0% / % protection at 3.0%: croton oil rat ear edema; for potency in reducing edema produced by croton oil (conclusion in words): compared with hydrocortisone, summary of Table 4. As for the experimental part:
The following compounds were tested in the standard Tonelli anti-inflammatory animal test model for their effectiveness in preventing croton oil-induced rat ear edema.

In a further assay the target is T1, prostaglandin synthetase (Bos taurus, UniProt O62664).
T1 construct: enzyme source was bovine; from tissue; host or cells: bovine seminal vesicles
T1 sequence (O62664 25-600): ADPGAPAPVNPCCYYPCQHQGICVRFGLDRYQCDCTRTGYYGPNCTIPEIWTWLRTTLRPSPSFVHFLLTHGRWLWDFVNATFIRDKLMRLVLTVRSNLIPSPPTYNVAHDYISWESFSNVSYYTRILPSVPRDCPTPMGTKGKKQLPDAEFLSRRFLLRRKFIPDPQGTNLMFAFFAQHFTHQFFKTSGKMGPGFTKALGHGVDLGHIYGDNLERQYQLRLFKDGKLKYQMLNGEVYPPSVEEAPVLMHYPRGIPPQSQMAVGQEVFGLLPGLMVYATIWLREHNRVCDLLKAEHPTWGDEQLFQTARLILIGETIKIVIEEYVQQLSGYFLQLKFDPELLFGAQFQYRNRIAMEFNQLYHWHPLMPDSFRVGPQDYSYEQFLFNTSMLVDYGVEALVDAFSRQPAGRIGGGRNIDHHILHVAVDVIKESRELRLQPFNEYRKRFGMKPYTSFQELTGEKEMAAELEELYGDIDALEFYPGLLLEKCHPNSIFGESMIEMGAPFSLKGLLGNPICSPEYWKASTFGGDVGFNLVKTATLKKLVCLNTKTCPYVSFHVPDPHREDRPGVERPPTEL
The assay is described as follows: Prostaglandin synthetase inhibition (procedure of Flower et al.). Format: biochemical, bovine. As for the experimental part:
Compounds were tested for prostaglandin synthetase inhibition via the procedure of Flower et al. (Prostaglandins 4: 325, 1973).

Assay [2] relates to mouse diarrhea induced by intraperitoneal prostaglandin E2. The assay is described as follows: Prevention of mouse diarrhea induced by intraperitoneal prostaglandin E2 injection. The class given is in vivo. Particulars: for ED50: Mus musculus, ip, administered intraperitoneally. How it is done:
Compounds 1 and 2 of Table 2 were tested for their effectiveness in preventing mouse diarrhea induced by intraperitoneal prostaglandin E2 injection. The data are summarized below in Table 5:
^1 dose administered i.p.

The mark [3] stands for this setting: enzyme source bovine seminal vesicles.

Like-named read-outs stand apart in the source and are kept apart here.

As usually defined, the ED50 is the dose at which the effect has come halfway, by size or by number of responders. Higher therefore signals a need for a large dose.

Consider `CC(OP(=O)(O)Oc1ccccc1)c1ccc(C2CCCCC2)c(Cl)c1` (stereo not drawn) [Compound 1], for which the “prostaglandin receptor blocking activity (conclusion in words)” value (shortened to “prostaglandin receptor blocking activity”) with prostaglandin receptor is listed as “prostaglandin receptor blockers”. In addition, in assay [1], the “% protection at 0.3%” value was 0.0%, the “% protection at 1.0%” value was determined as 23.4%, the “% protection at 3.0%” value was determined as 53.8% and the “potency in reducing edema produced by croton oil (conclusion in words)” value was “approximately as potent as hydrocortisone”. At prostaglandin synthetase, this molecule gave an IC50 of 18 µM. The “prostaglandin synthetase blocking (conclusion in words)” value on prostaglandin synthetase (compared with indomethacin, summary of Table 3) is “effective blocker of prostaglandin synthetase, comparable in effect to indomethacin”. In addition, the “% prevention of diarrhea” value in assay [2] (30 Mg/kg i.p.) was determined as 0%. The “% prevention of diarrhea” value in assay [2] (60 Mg/kg i.p.) is recorded as 60%. Also, the “% prevention of diarrhea” value in assay [2] (100 Mg/kg i.p.) was 70%. For the same molecule, the ED50 in assay [2] is around 60 mg/kg.
As to `CC(COP(=O)(O)Oc1ccccc1)c1ccc(C2CCCCC2)c(Cl)c1` (stereo not drawn) [Compound 2], the “prostaglandin receptor blocking activity” value in the assay with prostaglandin receptor is listed as “prostaglandin receptor blockers”. Besides, in assay [1], the “% protection at 0.3%” value worked out at 15.9%, the “% protection at 1.0%” value was 51.3%, the “% protection at 3.0%” value came to 65.4% and the “potency in reducing edema produced by croton oil (conclusion in words)” value is “approximately as potent as hydrocortisone”. Further, the IC50 against prostaglandin synthetase was found to be 50 µM. For the same molecule, the “% prevention of diarrhea” value in assay [2] (30 Mg/kg i.p.) was determined as 40%. Further, the “% prevention of diarrhea” value in assay [2] (60 Mg/kg i.p.) amounted to 50%. Moreover, the “% prevention of diarrhea” value in assay [2] (100 Mg/kg i.p.) stood at 70%. For the same molecule, the ED50 in assay [2] is around 60 mg/kg.
Consider `CC(CO)c1ccc(C2CCCCC2)c(Cl)c1` (stereo not drawn) [Compound 4, reference compound], for which, in the assay with prostaglandin receptor, the “prostaglandin receptor blocking activity” value was “weak or have no prostaglandin-blocking activity”. Moreover, on prostaglandin synthetase (setting [3]), the “prostaglandin synthetase inhibition at 50 μM” value is “no inhibition”.
For `C[C@]12CCC(=O)C=C1CC[C@@H]1[C@@H]2[C@@H](O)C[C@@]2(C)[C@H]1CC[C@]2(O)C(=O)CO` [hydrocortisone, reference compound], in assay [1], the “% protection at 0.3%” value came to 13.8%, the “% protection at 1.0%” value is 45.9% and the “% protection at 3.0%” value turned out to be 68.7%.
`CC(C(=O)O)c1ccc(C2CCCCC2)c(Cl)c1` (stereo not drawn) [Compound 3]: the “Guinea pig ileum inhibition vs Prostaglandin E2” value in the assay with prostaglandin receptor (Guinea pig ileum, vs PGE2, at 30 × 10^^-6) is reported as “No inhibition”. In the assay with prostaglandin receptor, the “prostaglandin receptor blocking activity” value is on record as “weak or have no prostaglandin-blocking activity”. In addition, the IC50 on prostaglandin synthetase (enzyme source bovine seminal vesicles, read-out: ID50 vs Prostaglandin E2 (prostaglandin synthetase inhibition)) fell in the range of 2 to 4 µM.
In the case of `CC(O)c1ccc(C2CCCCC2)c(Cl)c1` (stereo not drawn) [Compound 5, reference compound], the “prostaglandin synthetase inhibition at 50 μM” value at prostaglandin synthetase (setting [3]) is “insignificant”.
